Here are results for 32 compounds from patent US9783536B2, “Nitrogen-containing heterocyclic compound or salt thereof” (FUJIFILM Corporation, priority 2013, dated 2017).

Structures can show the parent of a compound that is named as a salt.

Test [1] deals with T1, GST fusion human ERK2 protein (Homo sapiens, UniProt P28482).
T1 construct: purchased Carna Biosciences, Inc; host or cells: E. coli expression system
In words: ERK2 enzyme assay (1). The format is biochemical. The note with it: 2.5 nmol/L ERK2, ATP 43.1 μmol/L; read-out: ERK2 enzyme inhibitory activity (1). Summed up: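 IC50 derived from the proportion of phosphorylated 5-FAM peptide, separated from unphosphorylated peptide by microfluidic mobility shift. Compound was first preincubated 15 min at room temperature with 2.5 nmol/L kinase at pH 7.5, then 43.1 μmol/L ATP plus 4.25 μmol/L substrate reacted 120 min at 25 °C.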

The target in the next test is T2, human PI3Kα protein (Homo sapiens, UniProt P42336).
T2 construct: purchased Carna Biosciences, Inc; host or cells: baculovirus expression system
T2 sequence (P42336 whole entry): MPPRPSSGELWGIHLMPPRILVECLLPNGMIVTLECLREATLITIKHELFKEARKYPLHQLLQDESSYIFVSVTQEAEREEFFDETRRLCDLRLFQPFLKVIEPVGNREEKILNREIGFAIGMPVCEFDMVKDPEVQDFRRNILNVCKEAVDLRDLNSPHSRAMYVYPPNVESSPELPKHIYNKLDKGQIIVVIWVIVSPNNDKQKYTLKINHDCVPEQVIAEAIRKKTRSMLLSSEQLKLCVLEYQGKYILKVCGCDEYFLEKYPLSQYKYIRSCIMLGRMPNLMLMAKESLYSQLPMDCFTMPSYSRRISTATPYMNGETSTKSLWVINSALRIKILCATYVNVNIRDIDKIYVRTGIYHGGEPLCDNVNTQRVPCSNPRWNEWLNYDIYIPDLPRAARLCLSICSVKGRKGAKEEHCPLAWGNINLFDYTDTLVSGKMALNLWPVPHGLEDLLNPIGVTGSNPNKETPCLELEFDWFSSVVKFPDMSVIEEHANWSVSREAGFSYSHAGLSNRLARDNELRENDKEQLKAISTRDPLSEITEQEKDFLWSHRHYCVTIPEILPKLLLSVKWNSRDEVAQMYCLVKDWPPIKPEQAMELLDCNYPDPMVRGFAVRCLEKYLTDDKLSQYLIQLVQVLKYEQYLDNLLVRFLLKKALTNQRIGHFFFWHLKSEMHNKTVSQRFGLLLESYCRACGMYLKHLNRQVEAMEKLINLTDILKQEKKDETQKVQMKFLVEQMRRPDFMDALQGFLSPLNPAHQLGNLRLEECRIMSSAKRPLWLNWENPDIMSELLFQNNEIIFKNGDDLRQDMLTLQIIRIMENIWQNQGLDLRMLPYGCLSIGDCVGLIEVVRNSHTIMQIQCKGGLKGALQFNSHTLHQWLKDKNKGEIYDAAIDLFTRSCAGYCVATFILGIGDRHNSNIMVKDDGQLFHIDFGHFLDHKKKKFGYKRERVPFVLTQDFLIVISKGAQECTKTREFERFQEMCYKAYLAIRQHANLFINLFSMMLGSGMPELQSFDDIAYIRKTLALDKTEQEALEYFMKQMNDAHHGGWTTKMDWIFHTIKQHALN
T2 sequence (P27986 whole entry partner): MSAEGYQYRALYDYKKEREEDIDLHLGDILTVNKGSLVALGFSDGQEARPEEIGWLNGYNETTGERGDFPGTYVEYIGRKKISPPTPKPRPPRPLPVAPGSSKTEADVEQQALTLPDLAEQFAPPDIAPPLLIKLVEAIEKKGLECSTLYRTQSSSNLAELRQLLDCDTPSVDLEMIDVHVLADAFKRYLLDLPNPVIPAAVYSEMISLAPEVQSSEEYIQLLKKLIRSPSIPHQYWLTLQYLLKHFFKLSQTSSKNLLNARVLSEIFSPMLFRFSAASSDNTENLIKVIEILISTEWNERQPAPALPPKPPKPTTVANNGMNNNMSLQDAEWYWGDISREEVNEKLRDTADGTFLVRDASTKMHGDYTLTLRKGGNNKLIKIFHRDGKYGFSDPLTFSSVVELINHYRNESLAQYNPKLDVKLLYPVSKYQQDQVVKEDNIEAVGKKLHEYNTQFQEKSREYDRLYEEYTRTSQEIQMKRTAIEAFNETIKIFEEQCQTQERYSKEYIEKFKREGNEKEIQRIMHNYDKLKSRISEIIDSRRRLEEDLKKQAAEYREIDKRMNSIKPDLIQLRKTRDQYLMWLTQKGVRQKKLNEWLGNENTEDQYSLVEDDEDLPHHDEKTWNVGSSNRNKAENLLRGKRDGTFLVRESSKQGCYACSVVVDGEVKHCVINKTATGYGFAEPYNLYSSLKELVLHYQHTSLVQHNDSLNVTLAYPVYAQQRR
As to the kind of experiment: PI3Kα enzyme assay (ADP-Glo). The format is biochemical. The note with it: 4.5 nmol/L PI3Kα, PIP2 50 μmol/L, ATP 100 μmol/L; read-out: PI3Kα enzyme inhibitory activity. The method, boiled down:
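Biotinylated human PI3Kα (baculovirus-expressed, 4.5 nmol/L) pre-incubated 15 min with compound in Tris-HCl pH 7.5, MgCl2, BSA; reaction 60 min at 25° C with 50 μmol/L PIP2 and 100 μmol/L ATP final. ADP quantified by ADP-Glo luminescence; IC50 calculated.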
For orientation: In ADP-Glo the light output rises with the ADP produced.

T1 sequence (P28482 whole entry, the tested form may be a part): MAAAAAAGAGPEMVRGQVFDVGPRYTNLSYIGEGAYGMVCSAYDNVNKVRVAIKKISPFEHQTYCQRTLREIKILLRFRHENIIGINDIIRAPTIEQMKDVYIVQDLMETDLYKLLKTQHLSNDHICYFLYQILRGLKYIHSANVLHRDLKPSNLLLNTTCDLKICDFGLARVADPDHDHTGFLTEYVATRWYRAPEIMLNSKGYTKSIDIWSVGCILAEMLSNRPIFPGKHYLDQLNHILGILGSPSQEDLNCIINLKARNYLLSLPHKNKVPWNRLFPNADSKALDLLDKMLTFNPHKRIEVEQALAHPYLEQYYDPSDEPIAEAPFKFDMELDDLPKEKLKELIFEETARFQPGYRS

As for `CC(C)Cc1cnc(Nc2ccc3ncc(-c4cnn(C)c4)cc3n2)s1` [Example 0143, 5-isobutyl-N-(7-(1-methyl-1H-pyrazol-4-yl)-1,5-naphthyridin-2-yl)thiazole-2-amine], the IC50 in test [1] was less than 1000 nM; on human PI3Kα protein, 1000 to 10000 nM.
For `CC(C)Cc1cnc(Nc2ccc3ncc(-c4cnn(CCCN5CCCC5)c4)cc3n2)s1` [Example 0144], the IC50 (in test [1]; on human PI3Kα protein) was less than 1000 nM in each case.
Turning to `CC(C)OCc1nn(C)cc1-c1cnc2ccc(Nc3nnc(C(C)C)s3)nc2c1` [Example 0146], the IC50 (in test [1]; on human PI3Kα protein) was less than 1000 nM in each case.
For `Cn1cc(-c2cnc3ccc(Nc4ccc(Cl)nn4)nc3c2)cn1` [Example 0152], the IC50 is less than 1000 nM in test [1] and 1000 to 10000 nM at human PI3Kα protein.
The corresponding values for `CC(C)c1cnnc(Nc2ccc3ncc(-c4cn[nH]c4)cc3n2)c1` [Example 0153] are less than 1000 nM and 1000 to 10000 nM.
Turning to `Cc1cnnc(Nc2ccc3ncc(-c4cn[nH]c4)cc3n2)c1` [Example 0154], the IC50 is less than 1000 nM in test [1] and 1000 to 10000 nM on human PI3Kα protein.
The matching figures for `Cc1nn(CCCN2CCCC2)cc1-c1cnc2ccc(Nc3cc(C(C)C)cnn3)nc2c1` [Example 0156, N-(5-isopropylpyridazin-3-yl)-7-(3-methyl-1-(3-(pyrrolidin-1-yl)propyl)-1H-pyrazol-4-yl)-1,5-naphthyridine-2-amine]: less than 1000 nM and less than 1000 nM.
Regarding `Cn1cc(-c2cnc3ccc(Nc4nnc(Cc5ccccc5)s4)nc3c2)cn1` [Example 0165, 5-benzyl-N-(7-(1-methyl-1H-pyrazol-4-yl)-1,5-naphthyridin-2-yl)-1,3,4-thiadiazole-2-amine], the IC50 in test [1] was less than 1000 nM; at human PI3Kα protein it was 10000 to 50000 nM.
On to `CN(C)Cc1nnc(Nc2ccc3ncc(-c4cnn(C)c4)cc3n2)s1` [Example 0166, 5-((Dimethylamino)methyl)-N-(7-(1-methyl-1H-pyrazol-4-yl)-1,5-naphthyridin-2-yl)-1,3,4-thiadiazole-2-amine], for which the results for the IC50 (in test [1]; on human PI3Kα protein) were less than 1000 nM and 1000 to 10000 nM, respectively.
The corresponding values for `Cn1cc(-c2cnc3ccc(Nc4nnc(CCc5ccccc5)s4)nc3c2)cn1` [Example 0171, N-(7-(1-methyl-1H-pyrazol-4-yl)-1,5-naphthyridin-2-yl)-5-phenethyl-1,3,4-thiadiazole-2-amine] are less than 1000 nM and 10000 to 50000 nM.
The matching figures for `c1n[nH]cc1Nc1cnc2ccc(Nc3nnc(C4CCCC4)s3)nc2c1` [Example 0175, N^2-(5-cyclopentyl-1,3,4-thiadiazol-2-yl)-N^7-(1H-pyrazol-4-yl)-1,5-naphthyridine-2,7-diamine]: less than 1000 nM and less than 1000 nM.
As to `Cn1cc(-c2cnc3ccc(Nc4nnc(S(=O)(=O)Nc5ccccc5)s4)nc3c2)cn1` [Example 0176, 5-((7-(1-methyl-1H-pyrazol-4-yl)-1,5-naphthyridin-2-yl)amino)-N-phenyl-1,3,4-thiadiazole-2-sulfonamide], the IC50 (in test [1]; on human PI3Kα protein) was less than 1000 nM each time.
In the case of `Cn1cc(-c2cnc3ccc(Nc4nnc(NS(=O)(=O)c5ccccc5)s4)nc3c2)cn1` [Example 0177, N-(5-((7-(1-methyl-1H-pyrazol-4-yl)-1,5-naphthyridin-2-yl)amino)-1,3,4-thiadiazol-2-yl)benzene sulfonamide hydrochloride], the IC50 (in test [1]; at human PI3Kα protein) was less than 1000 nM throughout.
For `CCc1cnnc(Nc2ccc3ncc(-c4cnn(CCCN5CCOCC5)c4)cc3n2)c1` [Example 0178, N-(5-ethylpyridazin-3-yl)-7-(1-(3-morpholinopropyl)-1H-pyrazol-4-yl)-1,5-naphthyridine-2-amine], the IC50 (in test [1]; at human PI3Kα protein) was less than 1000 nM each time.
Take `CC(C)(C)OC(=O)N1CCN(CCn2cc(-c3cnc4ccc(Nc5nnc(S(=O)(=O)Nc6ccccc6)s5)nc4c3)cn2)CC1` [Example 0180, tert-Butyl 4-(2-(4-(6-((5-(N-phenylsulfamoyl)-1,3,4-thiadiazol-2-yl)amino)-1,5-naphthyridin-3-yl)-1H-pyrazol-1-yl)ethyl)piperazine-1-carboxylate]: the IC50 in test [1] was less than 1000 nM; on human PI3Kα protein it was 1000 to 10000 nM.
The matching figures for `O=S(=O)(Nc1ccccc1)c1nnc(Nc2ccc3ncc(-c4cnn(CCN5CCNCC5)c4)cc3n2)s1` [Example 0181, N-phenyl-5-((7-(1-(2-(piperazin-1-yl)ethyl)-1H-pyrazol-4-yl)-1,5-naphthyridin-2-yl)amino)-1,3,4-thiadiazole-2-sulfonamide hydrochloride]: less than 1000 nM and less than 1000 nM.
The corresponding values for `Cc1nnc(Nc2ccc3ncc(Nc4cn[nH]c4)cc3n2)s1` [Example 0182] are less than 1000 nM and 1000 to 10000 nM.
The corresponding values for `Cc1nnc(Nc2ccc3ncc(N(C)c4cn[nH]c4)cc3n2)s1` [Example 0183, N^7-methyl-N^2-(5-methyl-1,3,4-thiadiazol-2-yl)-N^7-(1H-pyrazol-4-yl)-1,5-naphthyridine-2,7-diamine] are less than 1000 nM and 1000 to 10000 nM.
Consider `Cc1nnc(Nc2ccc3ncc(Nc4cnn(C)c4)cc3n2)s1` [Example 0184], for which the values for the IC50 (in test [1]; at human PI3Kα protein) were less than 1000 nM and 1000 to 10000 nM, respectively.
Consider `Cc1nnc(Nc2ccc3ncc(N(C)c4cnn(C)c4)cc3n2)s1` [Example 0185, N^7-methyl-N^2-(5-methyl-1,3,4-thiadiazol-2-yl)-N^7-(1-methyl-1H-pyrazol-4-yl)-1,5-naphthyridine-2,7-diamine], for which the IC50 (in test [1]; at human PI3Kα protein) was less than 1000 nM throughout.
Turning to `c1nnc(Nc2ccc3ncc(Nc4cn[nH]c4)cc3n2)s1` [Example 0186, N^7-(1H-pyrazol-4-yl)-N^2-(1,3,4-thiadiazol-2-yl)-1,5-naphthyridine-2,7-diamine], the IC50 (in test [1]; at human PI3Kα protein) was less than 1000 nM each time.
`Cn1cc(-c2cnc3ccc(Nc4nnc(NS(C)(=O)=O)s4)nc3c2)cn1` [Example 0187, N-(5-((7-(1-methyl-1H-pyrazol-4-yl)-1,5-naphthyridin-2-yl)amino)-1,3,4-thiadiazol-2-yl)methane sulfonamide]: the IC50 (in test [1]; at human PI3Kα protein) was less than 1000 nM in each case.
With `O=S(=O)(Nc1ccccc1)c1nnc(Nc2ccc3ncc(-c4cnn(CCN5CCOCC5)c4)cc3n2)s1` [Example 0188, 5-((7-(1-(2-morpholinoethyl)-1H-pyrazol-4-yl)-1,5-naphthyridin-2-yl)amino)-N-phenyl-1,3,4-thiadiazole-2-sulfonamide sodium salt], the IC50 (in test [1]; at human PI3Kα protein) was less than 1000 nM each time.
On to `CN(c1nnc(Nc2ccc3ncc(-c4cnn(C)c4)cc3n2)s1)S(=O)(=O)c1ccccc1` [Example 0190], for which the IC50 in test [1] was less than 1000 nM; on human PI3Kα protein, 1000 to 10000 nM.
As to `Cn1cc(-c2cnc3ccc(Nc4nnc(S(N)(=O)=O)s4)nc3c2)cn1` [Example 0191, ((5-((7-(1-methyl-1H-pyrazol-4-yl)-1,5-naphthyridin-2-yl)amino)-1,3,4-thiadiazol-2-yl)sulfonyl)amide sodium salt], the IC50 (in test [1]; at human PI3Kα protein) was less than 1000 nM throughout.
Regarding `Cn1cc(-c2cnc3ccc(Nc4nnc(S(=O)(=O)NCc5ccccc5)s4)nc3c2)cn1` [Example 0192, N-benzyl-5-((7-(1-methyl-1H-pyrazol-4-yl)-1,5-naphthyridin-2-yl)amino)-1,3,4-thiadiazole-2-sulfonamide sodium salt], the IC50 (in test [1]; at human PI3Kα protein) was less than 1000 nM throughout.
Turning to `CN(C)S(=O)(=O)c1nnc(Nc2ccc3ncc(-c4cnn(C)c4)cc3n2)s1` [Example 0193, N,N-dimethyl-5-((7-(1-methyl-1H-pyrazol-4-yl)-1,5-naphthyridin-2-yl)amino)-1,3,4-thiadiazole-2-sulfonamide], the IC50 (in test [1]; at human PI3Kα protein) was less than 1000 nM in each case.
Take `Cn1cc(Nc2cnc3ccc(Nc4nnc(C5CCCC5)s4)nc3c2)cn1` [Example 0194]: the values for the IC50 (in test [1]; on human PI3Kα protein) were less than 1000 nM and 1000 to 10000 nM, respectively.
The corresponding values for `CN(c1cnc2ccc(Nc3nnc(C4CCCC4)s3)nc2c1)c1cnn(C)c1` [Example 0195, N^2-(5-cyclopentyl-1,3,4-thiadiazol-2-yl)-N^7-methyl-N^7-(1-methyl-1H-pyrazol-4-yl)-1,5-naphthyridine-2,7-diamine] are less than 1000 nM and 1000 to 10000 nM.
With `CN(c1cn[nH]c1)c1cnc2ccc(Nc3nnc(C4CCCC4)s3)nc2c1` [Example 0196, N^2-(5-cyclopentyl-1,3,4-thiadiazol-2-yl)-N^7-methyl-N^7-(1H-pyrazol-4-yl)-1,5-naphthyridine-2,7-diamine], the IC50 was less than 1000 nM in test [1] and 1000 to 10000 nM at human PI3Kα protein.
The corresponding values for `CN1CCN(CCCn2cc(-c3cnc4ccc(Nc5nnc(C6CCCC6)s5)nc4c3)cn2)CC1` [Example 0197, 5-cyclopentyl-N-(7-(1-(3-(4-methylpiperazin-1-yl)propyl)-1H-pyrazol-4-yl)-1,5-naphthyridin-2-yl)-1,3,4-thiadiazole-2-amine] are less than 1000 nM and less than 1000 nM.
Consider `Cn1cc(-c2cnc3ccc(Nc4cncs4)nc3c2)cn1` [Example 0199, N-(7-(1-methyl-1H-pyrazol-4-yl)-1,5-naphthyridin-2-yl)thiazole-5-amine], for which the IC50 (in test [1]; at human PI3Kα protein) was 1000 to 10000 nM throughout.
